From US12599672B2, “KRAS proteolysis targeting chimeras” (PAQ Therapeutics Inc., priority 2023, dated 2026)

What was measured:
KRAS G12D = biological target: T1, KRAS G12D (Homo sapiens, UniProt P01116, G12D); test: KRAS G12D HiBit assay; type: cell-based; conditions: AsPc-1-KRAS (G12D)-HiBit-KI cell, compound treatment for 24 hours; for DC50: absolute DC50
T1 construct: AsPc-1-KRAS (G12D)-HiBit-KI cell (Pharmaron); host or cells: AsPc-1-KRAS (G12D)-HiBit-KI cells (HiBiT knock-in at the endogenous KRAS locus)
Outline: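 Cells were treated for 24 h with compounds in a 3-fold, 10-point dilution series from a 0.3 mM DMSO stock, then equilibrated 15 min at room temperature. KRAS G12D HiBiT levels were read by luminescence after lytic Nano-Glo HiBiT reagent with LgBiT; inhibition calculated relative to 0.1% DMSO high control.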

KRAS G12V = biological target: T2, KRAS G12V (Homo sapiens, UniProt P01116, G12V); test: KRAS G12V HiBit assay; type: cell-based; conditions: SW620-KRAS (G12V)-HiBit-KI cells, compound treatment for 24 hours, class symbols
T2 construct: SW620-KRAS (G12V)-HiBit-KI cell (Pharmaron); host or cells: SW620-KRAS (G12V)-HiBit-KI cells (HiBiT knock-in at the endogenous KRAS locus)
Outline: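 HiBiT-tagged KRAS G12V cells treated 24 h with compound in a 3-fold, 10-point series (0.3 mM DMSO stock); lytic HiBiT reagent with LgBiT added after 15 min room-temperature equilibration. Degradation calculated against 0.1% DMSO high control.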

[1] = numeric bounds given in place of class symbols

T1 sequence (P01116 1-188 isoform P01116-2 G12D): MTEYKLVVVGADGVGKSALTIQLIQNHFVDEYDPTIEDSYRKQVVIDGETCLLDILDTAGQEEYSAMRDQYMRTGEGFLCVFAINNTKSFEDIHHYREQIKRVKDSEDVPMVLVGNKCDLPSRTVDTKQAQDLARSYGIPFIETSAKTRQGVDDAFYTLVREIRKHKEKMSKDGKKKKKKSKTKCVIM
T2 sequence (P01116 1-188 isoform P01116-2 G12V): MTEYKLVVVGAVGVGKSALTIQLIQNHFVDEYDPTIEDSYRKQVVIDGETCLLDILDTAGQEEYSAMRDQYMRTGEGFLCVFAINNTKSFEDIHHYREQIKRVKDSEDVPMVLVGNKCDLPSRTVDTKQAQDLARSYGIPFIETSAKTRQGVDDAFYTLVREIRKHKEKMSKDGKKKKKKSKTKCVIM

Row | Compound | DC50 (KRAS G12D; class symbols) | DC50 (KRAS G12V) | DC50 (KRAS G12D; [1]) | Dmax (KRAS G12D; class symbols)
1 | Cn1c(=O)n(C2CCC(=O)NC2=O)c2cc(C3CCN(CC4CCN(C(=O)CN5CCN(c6nccc(-c7noc([C@@]8(C)CCCc9sc(N)c(C#N)c98)n7)n6)CC5)CC4)CC3)ccc21 (stereo partly shown) [Compound 223] |  | > 100 nM | > 231 nM | 
2 | Cn1c(=O)n(C2CCC(=O)NC2=O)c2ccc(C3CCN(C4CC5(CCN(C(=O)OC[C@@H]6CC[C@]7(COc8nc(N9CCC[C@@](C)(O)C9)c9cnc(-c%10cc(O)cc%11cccc(Cl)c%10%11)c(F)c9n8)CCCN67)CC5)C4)CC3)cc21 (stereo partly drawn) [Compound 338, ((3S,7aS)-7a-(((7-(8-chloro-3-hydroxynaphthalen-1-yl)-8-fluoro-4-((R)-3-hydroxy-3-methylpiperidin-1-yl)pyrido[4,3-d]pyrimidin-2-yl)oxy)methyl)hexahydro-1H-pyrrolizin-3-yl)methyl 2-(4-(1-(2,6-dioxopiperidin-3-yl)-3-methyl-2-oxo-2,3-dihydro-1H-benzo[d]imidazol-5-yl)piperidin-1-yl)-7-azaspiro[3.5]nonane-7-carboxylate] | < 100 nM | < 10 nM |  | 
3 | C#Cc1c(F)ccc2cc(O)cc(-c3ccc4c(N5CCC[C@@](C)(O)C5)nc(OCC5(CN6CCC(CN7CCN(c8ccc9c(c8)n(C)c(=O)n9C8CCC(=O)NC8=O)CC7)CC6)CC5)nc4c3F)c12 (stereo partly shown) [Compound 12] | < 100 nM | > 100 nM |  | 
4 | CCc1c(F)ccc2cc(O)cc(-c3ncc4c(N5CCC(O)CC5)nc(OC[C@@]56CCCN5[C@H](COC(=O)N5CCC7(CC5)CC(N5CCC(c8ccc9c(c8)n(C)c(=O)n9C8CCC(=O)NC8=O)CC5)C7)CC6)nc4c3F)c12 (stereo partly drawn) [Compound 358, ((3S,7aS)-7a-(((7-(8-ethyl-7-fluoro-3-hydroxynaphthalen-1-yl)-8-fluoro-4-(4-hydroxypiperidin-1-yl)pyrido[4,3-d]pyrimidin-2-yl)oxy)methyl)hexahydro-1H-pyrrolizin-3-yl)methyl 2-(4-(1-(2,6-dioxopiperidin-3-yl)-3-methyl-2-oxo-2,3-dihydro-1H-benzo[d]imidazol-5-yl)piperidin-1-yl)-7-azaspiro[3.5]nonane-7-carboxylate] | < 100 nM | < 10 nM |  | 
5 | C#Cc1c(F)ccc2cccc(-c3ncc4c(N5CCC[C@@](C)(O)C5)nc(OCC5(CN6CCC(CN7CCN(c8ccc9c(c8)C(=O)N(C8CCC(=O)NC8=O)C9=O)CC7)CC6)CC5)nc4c3F)c12 (stereo partly shown) [Compound 49] |  | > 100 nM | > 160 nM | 
6 | C#Cc1c(F)ccc2cc(O)cc(-c3ncc4c(N5CCC[C@@](C)(O)C5)nc(OCC5(CN6CCN(Cc7ccc8c(c7)n(C)c(=O)n8C7CCC(=O)NC7=O)CC6)CC5)nc4c3F)c12 (stereo partly shown) [Compound 42] | > 300 nM | > 100 nM |  | 

Further lines, results first:

Row | DC50 (KRAS G12D; class symbols) | DC50 (KRAS G12V) | DC50 (KRAS G12D; [1]) | Dmax (KRAS G12D; class symbols) | Compound
7 | < 100 nM | < 10 nM |  |  | CCc1c(F)ccc2cc(O)cc(-c3ncc4c(N5CCC[C@@](C)(O)C5)nc(OC[C@@]56CCCN5[C@H](COC(=O)N5CCC7(CC5)CN(C5CCN(c8ccc9c(c8)n(C)c(=O)n9C8CCC(=O)NC8=O)CC5)C7)CC6)nc4c3F)c12 (stereo partly drawn) [Compound 463, ((3S,7aS)-7a-(((7-(8-ethyl-7-fluoro-3-hydroxynaphthalen-1-yl)-8-fluoro-4-((R)-3-hydroxy-3-methylpiperidin-1-yl)pyrido[4,3-d]pyrimidin-2-yl)oxy)methyl)hexahydro-1H-pyrrolizin-3-yl)methyl 2-(1-(1-(2,6-dioxopiperidin-3-yl)-3-methyl-2-oxo-2,3-dihydro-1H-benzo[d]imidazol-5-yl)piperidin-4-yl)-2,7-diazaspiro[3.5]nonane-7-carboxylate]
8 | > 300 nM | > 100 nM |  |  | C#Cc1c(F)ccc2cccc(-c3ncc4c(N5CCC[C@@](C)(O)C5)nc(OC[C@@]56CCCN5[C@H](COC(=O)N5CCC(N7CCC(c8ccc9c(c8)n(C)c(=O)n9C8CCC(=O)NC8=O)CC7)CC5)CC6)nc4c3F)c12 (stereo partly drawn) [Compound 128, ((3S,7aS)-7a-(((7-(8-Ethynyl-7-fluoronaphthalen-1-yl)-8-fluoro-4-((R)-3-hydroxy-3-methylpiperidin-1-yl)pyrido[4,3-d]pyrimidin-2-yl)oxy)methyl)hexahydro-1H-pyrrolizin-3-yl)methyl 4-(1-(2,6-dioxopiperidin-3-yl)-3-methyl-2-oxo-2,3-dihydro-1H-benzo[d]imidazol-5-yl)-[1,4′-bipiperidine]-1′-carboxylate]
9 | < 100 nM | < 10 nM |  |  | CCc1c(F)ccc2cc(O)cc(-c3ncc4c(N5CCC[C@@](C)(O)C5)nc(OC[C@@]56CCCN5[C@H](COC(=O)N5CC7CC(C5)C7CN5CCC(c7ccc8c(c7)n(C)c(=O)n8C7CCC(=O)NC7=O)CC5)CC6)nc4c3F)c12 (stereo partly drawn) [Compound 400, ((3S,7aS)-7a-(((7-(8-ethyl-7-fluoro-3-hydroxynaphthalen-1-yl)-8-fluoro-4-((R)-3-hydroxy-3-methylpiperidin-1-yl)pyrido[4,3-d]pyrimidin-2-yl)oxy)methyl)hexahydro-1H-pyrrolizin-3-yl)methyl 6-((4-(1-(2,6-dioxopiperidin-3-yl)-3-methyl-2-oxo-2,3-dihydro-1H-benzo[d]imidazol-5-yl)piperidin-1-yl)methyl)-3-azabicyclo[3.1.1]heptane-3-carboxylate]
10 | > 300 nM | > 100 nM |  |  | C#Cc1c(F)ccc2cccc(-c3ncc4c(N5CCCC(C#N)CC5)nc(OC[C@@]56CCCN5[C@H](COC(=O)NCCOCCOc5ccc7c(c5)n(C)c(=O)n7C5CCC(=O)NC5=O)CC6)nc4c3F)c12 (stereo partly drawn) [Compound 117, ((3S,7aS)-7a-(((4-(4-Cyanoazepan-1-yl)-7-(8-ethynyl-7-fluoronaphthalen-1-yl)-8-fluoropyrido[4,3-d]pyrimidin-2-yl)oxy)methyl)hexahydro-1H-pyrrolizin-3-yl)methyl (2-(2-((1-(2,6-dioxopiperidin-3-yl)-3-methyl-2-oxo-2,3-dihydro-1H-benzo[d]imidazol-5-yl)oxy)ethoxy)ethyl) carbamate]
11 | > 300 nM | > 100 nM |  |  | C#Cc1c(F)ccc2cccc(-c3ncc4c(N5CCCC(C#N)CC5)nc(OC[C@@]56CCCN5[C@H](COC(=O)NCCOc5ccc7c(c5)n(C)c(=O)n7C5CCC(=O)NC5=O)CC6)nc4c3F)c12 (stereo partly drawn) [Compound 116, ((3S,7aS)-7a-(((4-(4-cyanoazepan-1-yl)-7-(8-ethynyl-7-fluoronaphthalen-1-yl)-8-fluoropyrido[4,3-d]pyrimidin-2-yl)oxy)methyl)hexahydro-1H-pyrrolizin-3-yl)methyl (2-((1-(2,6-dioxopiperidin-3-yl)-3-methyl-2-oxo-2,3-dihydro-1H-benzo[d]imidazol-5-yl)oxy)ethyl) carbamate]
12 |  | > 100 nM | > 100 nM |  | C#Cc1c(F)ccc2cccc(-c3ncc4c(N5CCC[C@@](C)(O)C5)nc(OC[C@@]56CCCN5[C@H](COC(=O)N5CCC(COC7CN(c8ccc9c(c8)n(C)c(=O)n9C8CCC(=O)NC8=O)C7)CC5)CC6)nc4c3F)c12 (stereo partly shown) [Compound 153]
13 | > 300 nM | > 100 nM |  | 15 to 50% | CCc1c(F)ccc2cccc(-c3ncc4c(N5CCC[C@@](C)(O)C5)nc(OC[C@@]56CCCN5[C@H](COC(=O)NCCOCCOc5ccc7c(c5)n(C)c(=O)n7C5CCC(=O)NC5=O)CC6)nc4c3F)c12 (stereo partly drawn) [Compound 103, ((3S,7aS)-7a-(((7-(8-ethyl-7-fluoronaphthalen-1-yl)-8-fluoro-4-((R)-3-hydroxy-3-methylpiperidin-1-yl)pyrido[4,3-d]pyrimidin-2-yl)oxy)methyl)hexahydro-1H-pyrrolizin-3-yl)methyl (2-(2-((1-(2,6-dioxopiperidin-3-yl)-3-methyl-2-oxo-2,3-dihydro-1H-benzo[d]imidazol-5-yl)oxy)ethoxy)ethyl) carbamate]
14 |  | 10 to 100 nM | > 100 nM |  | CCc1c(F)ccc2cc(O)cc(-c3ncc4c(N5CCC[C@@](C)(O)C5)nc(OCC56CCCN5C(COCCCN5CCC(c7ccc8c(c7)n(C)c(=O)n8C7CCC(=O)NC7=O)CC5)CC6)nc4c3F)c12 (stereo partly drawn) [Compound 449, 3-(5-(1-(3-((7a-(((7-(8-ethyl-7-fluoro-3-hydroxynaphthalen-1-yl)-8-fluoro-4-((R)-3-hydroxy-3-methylpiperidin-1-yl)pyrido[4,3-d]pyrimidin-2-yl)oxy)methyl)hexahydro-1H-pyrrolizin-3-yl)methoxy)propyl)piperidin-4-yl)-3-methyl-2-oxo-2,3-dihydro-1H-benzo[d]imidazol-1-yl)piperidine-2,6-dione]
15 | < 100 nM | < 10 nM |  |  | CCc1c(F)ccc2cc(O)cc(-c3ncc4c(N5CCC[C@@](C)(O)C5)nc(OC[C@@]56CCCN5[C@H](COC(=O)N5CCC(N7CC8(CC(c9ccc%10c(c9)n(C)c(=O)n%10C9CCC(=O)NC9=O)C8)C7)CC5)CC6)nc4c3F)c12 (stereo partly drawn) [Compound 365, ((3S,7aS)-7a-(((7-(8-ethyl-7-fluoro-3-hydroxynaphthalen-1-yl)-8-fluoro-4-((R)-3-hydroxy-3-methylpiperidin-1-yl)pyrido[4,3-d]pyrimidin-2-yl)oxy)methyl)hexahydro-1H-pyrrolizin-3-yl)methyl 4-(6-(1-(2,6-dioxopiperidin-3-yl)-3-methyl-2-oxo-2,3-dihydro-1H-benzo[d]imidazol-5-yl)-2-azaspiro[3.3]heptan-2-yl)piperidine-1-carboxylate]
